Structures can show the parent of a compound that is named as a salt.
Key:
human spermatozoa [1] = test: Acrosome assay, protocol 1 (3h incubation with compound, no agonist; flow cytometry, PNA); type: cell-based; conditions: 3h with compound, no agonist addition
Procedure: The acrosome assays utilize a high-throughput flow cytometer (S1 Fig) to score for compounds inducing the acrosome reaction, using peanut agglutinin conjugated to a fluorescent dye to label the outer acrosomal membrane. We have developed two different screening protocols, named ‘acrosome 1’ and ‘acrosome 2’ (S1 Fig). […] This addition allowed measurement of inhibition of acrosome reaction (Fig 2B).
(§1) In both experimental protocols, 20 μL of pooled cells (at 1 M/mL concentration) were capacitated for 3 h in presence of compounds at 37°C and 5% CO2. In protocol a, cells were then stained with PNA-Alexa647 (ThermoFisher, 1 mg/mL, final dilution 1:1000) and Hoechst dye for 30 min at 37°C and 5% CO2, followed by 10 min fixation at RT by adding 20 μL of 4% paraformaldehyde (Sigma) in PBS. In mode b, a cocktail of progesterone, prostaglandin A and NH4Cl was added to all compound wells and incubated for an additional 1 h at 37°C and 5% CO2 to induce acrosome reaction. This was followed by fixation and staining protocol as for mode a. In both protocols fixatives and stains were removed and cells were resuspended in PBS, using a 405 platewasher. Plates were then measured on a Novocyte Advanteon high-throughput flow cytometer. Gating of data has been performed using the flow cytometer software to export counts of gated populations. The Acrosome 1 protocol using 3h incubation with compounds was run in 7 separate donor pools. The Acrosome 2 protocol using 3h incubation with compound followed by 1h stimulation of acrosome reaction was run in 5 separate donor pools.
(§2) For cell painting imaging data, plates of images were imported into OMERO [70]. Cell segmentation and feature extraction were performed using CellProfiler 3 [71] and using instructions from to normalize data. Timelapse data of motility assays was processed as previously described. Acrosome flow cytometry data was processed using NovoCyte Express (PerkinElmer), to gate out background debris, select for single cells and calculate percentage values of acrosome positive events. Sperm viability flow cytometry data was processed using iQue Forecyt (Satorius) to gate out background debris, select for single cells and calculate percentage values of propidium iodide positive events. For all sperm functional assays, data was normalized to DMSO control wells. Each plate had 16 DMSO wells. A median value of all 16 wells was used to calculated percentage change (pct_ch = ((value / DMSO_median) -1) * 100). For sperm viability we calculated fold-change (fc = 1 − (value / DMSO_median)). For each compound we calculated a p-value using a Welch’s t-test implemented in scipy (scipy.stats.ttest_ind) comparing a compounds effect to DMSO controls.

human spermatozoa [2] = test: Acrosome assay, protocol 2 (3h with compound, then 1h agonist cocktail); type: cell-based; conditions: cluster in Fig 3A; 3h with compound then agonist mix
Procedure: The acrosome assays utilize a high-throughput flow cytometer (S1 Fig) to score for compounds inducing the acrosome reaction, using peanut agglutinin conjugated to a fluorescent dye to label the outer acrosomal membrane. We have developed two different screening protocols, named ‘acrosome 1’ and ‘acrosome 2’ (S1 Fig). Both protocols are capable of measuring induction of the acrosome reaction upon compound incubation. However, in the acrosome 2 assay, a mixture of physiological agonists of the acrosome reaction is used after cells have been incubated with compounds for 3h under conditions that support capacitation. This addition allowed measurement of inhibition of acrosome reaction (Fig 2B).
as §1
as §2, with “Sperm viability flow cytometry data was processed using iQue Forecyt (Satorius) to gate out background debris, select for single cells and calculate percentage values of propidium iodide positive events. For all sperm functional assays, data was normalized to DMSO control wells. Each plate had 16 DMSO wells.” left out

human spermatozoa [3] = test: Motility assay (non-capacitating conditions); type: cell-based
Procedure: (§3) To compare the effects of STB compounds on specific sperm functions (e.g. motility, acrosome reaction, viability), we screened them in multiple phenotypic functional assays described below. Each sperm function assay has been repeated in multiple donor pools (see Materials and methods), where each pool consists of cells donated from at least 3 different donors to address donor to donor variability. Each compound has been tested at two concentrations, 10 and 30 μM, and normalized to vehicle controls (DMSO, see Materials and methods). We have modified our assays from the previously published workflow by increasing incubation time and introducing conditions that support capacitation, which is a sperm maturation process required for fertilization. These changes expand the range of targets that we can explore in our assays. Our live-sperm-based high-throughput motility assays use an automated microscope to record short timelapse movies. These assays can be run in different protocols (S1 Fig). […] In this protocol, cells are incubated with compounds for 10 min prior to the first motility read-out. A second and third motility read-out were performed after 3h and 6h incubation. The second protocol, denoted ‘capacitation assay’, utilises conditions that support capacitation (S1 Fig). In this protocol, cells are kept in conditions supporting capacitation for 30 minutes prior to 30 minutes incubation with compound, followed by motility read-out. Both protocols allow sperm motility to be measured (0.5 sec time-lapse movies allow tracking of cells and calculation of sperm kinematics). In addition, the capacitation assay also scores hyperactivation (i.e. distinct movement patterns concomitant with capacitation which are crucial for fertilization) (Fig 2A).
Cells were rested for 1 h post density gradient centrifugation. 10 μL assay buffer was dispensed into assay ready plates, plates were put onto a shaker instrument for 30 seconds using 1,000 rpm, followed by a short pulse centrifugation. Plates were incubated for 15–30 mins at 37°C prior to addition of 10 μL of pooled cells (at 1 M/mL concentration). Plates were then incubated in a Yokogawa CV7000 microscope set at 37°C for 10 min prior to imaging. Imaging a 384-well plate requires ≤ 20 min using the following settings: 2 positions per well, 0.5 sec timelapse movies (3x binning; 11 ms exposure time, 22 ms interval time, […]). A second and a third timepoint was recorded after 3 h, and 6 h incubation at 37°C. Data has been processed as described in [8]. Assay results are from 5 separate donor pools.
as §2

human spermatozoa [4] = test: Capacitation assay (motility and hyperactivation under capacitating conditions); type: cell-based; conditions: cluster in Fig 3A; 30 min capacitation then 30 min with compound
Procedure: as §3
Cells were capacitated for 30 min at 37°C and 5% CO2. 10 μL assay buffer was dispensed into assay ready plates, plates were put onto a shaker instrument for 30 seconds using 1,000 rpm, followed by a short pulse centrifugation. Plates were incubated for 15–30 mins at 37°C and 5% CO2 prior to addition of 10 μL of pooled cells (at 1 M/mL concentration). This was followed by a 20 min compound incubation step at 37°C and 5% CO2. Plates were then incubated in our CV7000 microscope set at 37°C and 5% CO2 for 10 min prior to imaging. […]
For cell painting imaging data, plates of images were imported into OMERO [70]. […] A median value of all 16 wells was used to calculated percentage change (pct_ch = ((value / DMSO_median) -1) * 100). For sperm viability we calculated fold-change (fc = 1 − (value / DMSO_median)). For each compound we calculated a p-value using a Welch’s t-test implemented in scipy (scipy.stats.ttest_ind) comparing a compounds effect to DMSO controls.

human spermatozoa [5] = test: Sperm viability assay (propidium iodide, flow cytometry); type: cell-based; conditions: 3h with compound
Procedure: In this assay, cells are incubated for 3h with compound in non-capacitating media, prior to viability assessment.
Cells were incubated with compounds for a total of 3h at 37°C. 20 min prior, propidium iodide was added (1.5 mM solution, Sigma, final dilution 1:2000). Plates were analysed using a Satorius iQue Screener with settings to allow for a sampling time of ≤30 min per 384-well plate. Gating of data has been performed using the flow cytometer software to export counts of gated populations. This assay was tested in 5 separate donor pools.
as §2

HeLa = HeLa cell painting cytotoxicity assay; type: cell-based; conditions: 24h compound incubation
Procedure: The HeLa-based assay uses the cell painting assay [11], while the HepG2 assay utilizes a resazurin based viability read-out [64].
Cell were incubated with compounds for 24h.
• 10 μL of MitoTracker (Life Technologies, M22426, 1 mM stock in DMSO as recommended by the vendor) is added to 50 μL of media (1:2000 final dilution) • Phalloidin-Alexa594 (Life Technologies, A12381, 66 μM stock in methanol as recommended by the vendor, 1:500 final dilution) • WGA-Alexa594 (Life Technologies, W11262, 5 mg/mL stock, 1:250 final dilution) was used • DAPI (5 mg/mL stock; 1:1000 final dilution) was used to stain DNA • 20 μL of staining solution was used • PBS was used for washing steps
For cell painting imaging data, plates of images were imported into OMERO [70]. Cell segmentation and feature extraction were performed using CellProfiler 3 [71] and using instructions from [11] to normalize data.

HepG2 = HepG2 cytotoxicity assay (resazurin based); type: cell-based; conditions: 70h incubation
LRRK2 kinase = conditions: cited from earlier work
spermatozoa = system: spermatozoa; set-up: method as in per compound as listed in column References of Table 1; conditions: summaries of reported effects; ref per compound as listed in Table 1; cited from earlier work
[6] = system: Testis-Specific Serine/Threonine Kinase 2 (TSSK2); set-up: method as in PMID 28952188; conditions: described as; cited from earlier work

| SMILES | acrosome reacted cells without agonist cocktail (human spermatozoa [1]) | acrosome reaction (acrosome reacted cells) (human spermatozoa [2]) | progressive motility (human spermatozoa [3]; non-capacitating conditions, Fig 2) | hyperactive motility (human spermatozoa [4]) | effects on sperm viability (human spermatozoa [5]) | general cytotoxicity (HeLa) (HeLa) | general cytotoxicity (HepG2) (HepG2) | LRRK2 kinase inhibition (LRRK2 kinase; described as) | Published Phenotype (spermatozoa) | sperm motility (human spermatozoa [3]) | LRRK2 inhibition (LRRK2 kinase; annotated as) | TSSK2 inhibition [6] |
| --- | --- | --- | --- | --- | --- | --- | --- | --- | --- | --- | --- | --- |
| COc1cc(C(=O)N2CCC(N3CCN(C)CC3)CC2)ccc1Nc1ncc2c(n1)N(C)c1ccccc1C(=O)N2C [LRRK2-IN-1] | no change | significantly increased | enhances motility | significantly increased | do not show effects | do not show effects | do not show effects | selective inhibitor | – | – | – | – |
| C[C@]1(O)C[C@@H](c2nc(-c3ccc4ccc(-c5ccccc5)nc4c3)c3c(N)nccn32)C1 [Linsitinib] | – | significantly increased | – | significantly increased | do not show effects | do not show effects | do not show effects | – | enhances sperm motility | – | – | – |
| COc1cc(N2CCOCC2)ccc1Nc1ncc(F)c(Nc2ccccc2NS(C)(=O)=O)n1 [CZC 25146] | – | – | – | – | – | – | – | – | – | decrease sperm motility | potent LRRK2 inhibitor | – |
| COc1cc2c(cc1OC)-c1c/c(=N\c3c(C)cc(C)cc3C)n(C)c(=O)n1CC2 [Trequinsin hydrochloride] | – | significantly increased | – | significantly increased | do not show effects | do not show effects | do not show effects | – | Increases hyperactivated sperm; increases penetration of sperm into viscous media, increases motility | – | – | – |
| CNS(=O)(=O)c1ccccc1Nc1nc(Nc2ccc(C3CCN(C)CC3)cc2OC)ncc1Cl [Compound 19] | – | – | – | – | – | – | – | – | Blocks TSSK; similarity to brigatinib | decrease sperm motility | – | potent |
| Nc1nc(Cl)nc2c1ncn2[C@@H]1O[C@H](CO)[C@@H](O)[C@@H]1F [Clofarabine] | – | significantly increased | – | significantly increased | do not show effects | do not show effects | do not show effects | – | Enhances sperm motility | – | – | – |

From PMC10878532, “Sperm Toolbox—A selection of small molecules to study human spermatozoa” (PLOS ONE, 2024)
